Test results from patent US20090318357A1, “Molecules Preferentially Associated with Effector T Cells or Regulatory T Cells and Methods of Their Use” (Tolerx, Inc., priority 2002, published 2009).

Tests used:
Format in all cases: cell-based, human
[1] = test system: anti-CD3/anti-CD28 stimulated PBLs; experiment: Transcription factor (FOXP3, Tbox21, GATA3) mRNA expression by Real-Time PCR in activated PBL
Experimental: This example describes the effect of TGFβ1 on the expression levels of Tbox 21, GATA3 and FOXP3 expression in anti-CD3/anti-CD28 stimulated PBLs. Real-time PCR was used to quantitate the levels of transcription factor mRNA in the presence and absence of TGFβ1.
PBL were stimulated for 72 hours with anti-CD3/anti-CD28 in the presence or absence of TGFβ1 and total RNA was extracted using a QiganRNeasy Mini Kit according to manufacturer's instructions. RNA was stored at minus 80° C.
cDNA was prepared from RNA using the Applied Biosystems High-Capacity cDNA Archive Kit according to manufacturer's instructions.
One μg cDNA was amplified using Applied Biosystems Assays-on-Demand™ Gene Expression products (i.e., TaqMan Universal PCR Mastermix and Assay-on-Demand solution, including marker specific primers) according to the following protocol, in accordance with manufacturer's instructions. Probe/primer reagents for FOXP3, GATA3 and Tbox21 were obtained from Applied Biosystems via the Assay on Demand program.
For the QPCR reaction, 2.5 μl Assay on Demand reagent (Applied Biosystems) were added to 25 μl TaqMan Master Mix™ and samples brought to a total volume of 50 μl with RNAse-free water. PCR reactions were run under the following conditions: 50° C. for 1 minute, 95° C. for 10 minutes and 40 cycles of 95° C. for 15 seconds followed by 60° C. for 1 minute. 18 sRNA or β-actin was run with every assay as a control; 2.5 μl of primer/probe mix, 25 μl of TaqMan MasterMix™, 22.5 μl RNAse-free water. Reactants were detected using an Applied Biosystems QPCR instrument (i.e., ABI Program 7000 SDS Sequence Detection System). The relative expression of the transcription factors for both TGFβ1-treated and untreated stimulated PBLs was determined. Relative expression was calculated assuming that the levels of transcription factor mRNA in stimulated PBL in the absence of added cytokines was 100%. […]

TGFβ1-derived Treg cells [2] = experiment: Cytokine production in TGFβ1-derived Treg cells (Searchlight ELISA); conditions: percent of untreated control, 7-12 days
Description: (§1) Differentiated cell lines were produced from cells prepared from human cord blood or peripheral blood CD4+CD45RA+ naïve T cells by a variety of methods, including flow cytometry and magnetic bead separations. Purity of the starting populations was >95%. Cells were then stimulated by CD3 and CD28 antibodies in RPMI 1640 with 10% FCS and 1% Human AB serum with defined mixtures of cytokines and neutralizing antibodies to cytokines to produce the differentiated cell types. Th1 cells were produced by culture with IL12 (62 U/ml) and anti-IL4 (0.2 ug/ml); Th2 cells were produced by culture in IL4(145 U/ml) and anti-IL12 (10 ug/ml) and anti-IFNγ (10 ug/ml); and regulatory T cells were produced by culture in TGFβ (32 U/ml), IL9 (42 U/ml), anti-IL4 (10 ug/ml) and anti-IL12 (10 ug/ml) and anti-IFNγ (10 ug/ml). (Note: anti-IL12 was not used in all experiments). All cultures were supplemented with IL2 (65 U/ml) and IL15 (4500 U/ml). Cells were split into larger culture dishes as warranted by cell division. At the conclusion of one round of cell differentiation (7-12 days), cells were harvested for preparation of total RNA for use in the gene chip experiments.
(§2) Differentiated cells were prepared as described in Example 1. Varying concentrations (0.1 μM, 1.0 μM and 10 μM) of Thioperamide was added at the time of plating. At the conclusion of one round of cell differentiation (7-12 days), cells were assayed for the production of the cytokines, IL-2, IL-4, IL-5, IL-10, IL-12-p70, IL-13, IFN-γ, TNF-alpha, and TGFβ1, by Searchlight™ technology, a chemiluminescent enzyme-linked immunoabsorbant assay (ELISA) according to the manufacturer's instructions, commercially available from Pierce Biotechnology.
(§3) Data are plotted as a percent of control (untreated) assuming that the levels of cytokine production in stimulated differentiated cells in the absence of Thioperamide is 100%.
(§4) Differentiated cells were prepared as described in Example 1. Varying concentrations (1.0 μM, 10.0 μM and 100 μM) of Serotonin was added at the time of plating. At the conclusion of one round of cell differentiation (7-12 days), cells were assayed for the production of the cytokines, IL-2, IL-4, IL-5, IL-10, IL-12-p70, IL-13, IFN-γ, TNFα, and TGFβ1, by ELISA as described in Example 5.
(§5) Data are plotted as a percent of control (untreated) assuming that the levels of cytokine production in stimulated PBL in the absence of Serotonin is 100%.
(§6) Differentiated cells were prepared as described in Example 1. Varying concentrations (0.1 μM, 1.0 μM and 10.0 μM) of Rolipram or Zardaverine was added at the time of plating. At the conclusion of one round of cell differentiation (7-12 days), cells were assayed for the production of the cytokines, IL-2, IL-4, IL-5, IL-10, IL-12-p70, IL-13, IFN-γ, TNFα, and TGFβ1, by ELISA as described in Example 5.
(§7) The results of the effect of Rolipram on the production of cytokines is shown in FIGS. 11A, 11B, and 11C, and the results of the effect of Zardaverine on the production of cytokines is shown in FIGS. 12A, 12B, and 12C. Data are plotted as a percent of control (untreated) assuming that the levels of cytokine production in stimulated PBL in the absence of rolipram or zardaverine is 100%.

Th2 cells [3] = experiment: Cytokine production in differentiated Th2 cells (Searchlight ELISA); conditions: percent of untreated control, 7-12 days
Description: as §1, §2, §3, §4, §5, §6, §7

Th1 cells [4] = experiment: Cytokine production in differentiated Th1 cells (Searchlight ELISA); conditions: percent of untreated control, 7-12 days
Description: as §1, §2, §3, §4, §5, §6, §7

Th1 cells [5] = experiment: Proliferation of differentiated Th1 cells (cell count); conditions: re-stimulated with anti-CD3 and anti-CD28, three days, cells counted; vs untreated cells
Description: (§8) Differentiated cell lines were produced from cells prepared from human cord blood or peripheral blood CD4+CD45RA+ naïve T cells by a variety of methods, including flow cytometry and magnetic bead separations. Purity of the starting populations was >95%. Cells were then stimulated by CD3 and CD28 antibodies in RPMI 1640 with 10% FCS and 1% Human AB serum with defined mixtures of cytokines and neutralizing antibodies to cytokines to produce the differentiated cell types. […]
(§9) Differentiated cell types were prepared as described in Example 1 then cultured in the presence of anti-CD3 and anti-CD28 for seven days. Cells were subsequently re-stimulated with anti-CD3 and anti-CD28, with the addition of Serotonin at 1, 10 and 100 μM, for three days at which time the cells were counted and the data were plotted as a percent of control (untreated cells).
(§10) Differentiated cell types were prepared as described in Example 1 then cultured in the presence of anti-CD3 and anti-CD28 for seven days. Cells were subsequently re-stimulated with anti-CD3 and anti-CD28 (as described in Example 7), with the addition of either Rolipram or Zardaverine at 0.1 μM, 1.0 μM and 10 μM for three days at which time the cells were counted and the data were plotted as a percent of control (untreated cells).

Th2 cells [6] = experiment: Proliferation of differentiated Th2 cells (cell count); conditions: cells counted
Description: as §8, §9, §10

TGFβ1-derived Treg cells [7] = experiment: Proliferation of TGFβ1-derived Treg cells (cell count); conditions: cells counted; for proliferation of TGFβ1-derived Treg cells: re-stimulated with anti-CD3 and anti-CD28, three days, vs untreated cells
Description: as §1, §9, §10

[8] = mRNA, over the concentrations tested, control = 100%
[9] = mRNA, among the concentrations tested
[10] = PBL stimulated 72 hours with anti-CD3/anti-CD28, mRNA, FIG. 1

Row | Compound | Tbox21 expression relative to control [1, 8] | production of IFN-gamma (TGFβ1-derived Treg cells [2]) | production of IL-2 (TGFβ1-derived Treg cells [2]) | production of TGFβ1 (TGFβ1-derived Treg cells [2]) | production of IL-4 (Th2 cells [3]) | production of IL-5 (Th2 cells [3]) | production of IL-10 (Th2 cells [3]) | production of IL-13 (Th2 cells [3]) | production of IFN-gamma (Th1 cells [4]) | production of TNF-alpha (Th1 cells [4]) | FOXP3 expression relative to control [1, 8] | GATA3 expression relative to control [1, 8] | proliferation of Th1 cells (Th1 cells [5]) | proliferation of TGFβ1-derived Treg cells (TGFβ1-derived Treg cells [7]) | production of IL-10 (Th1 cells [4]) | further results
1 | S=C(NC1CCCCC1)N1CCC(c2cnc[nH]2)CC1 [Thioperamide] | relatively unchanged | significantly increased | significantly increased | significantly increased | significantly increased | significantly increased | significantly reduced | significantly increased | significantly induce | significantly induce |  |  |  |  |  | FOXP3 expression relative to control ([1]; at 10 μM): moderate increase; GATA3 expression relative to control ([1]; at 10 μM): moderate increase; production of IL-4 (TGFβ1-derived Treg cells [2]): significantly reduced; production of IL-10 (TGFβ1-derived Treg cells [2]): significantly increased; production of IL-13 (Th1 cells [4]): significantly reducing
2 | CC(C)Oc1ccc2c(=O)c3cc(C(=O)O)ccc3oc2c1 [AH6809] |  |  |  |  |  |  |  |  |  |  | trend toward increasing | unchanged |  |  |  | Tbox21 expression relative to untreated control ([1]; at 0.1 μM): increased; Tbox21 expression relative to untreated control ([1]; at 10 μM): decreased; concentration of maximal FOXP3 expression [1, 9]: 0.1 µM
3 | NCCc1c[nH]c2ccc(O)cc12 [Serotonin] | increase | significantly reduced | significantly reduced | significantly reduced | significantly reduced | significantly reduced | no effect | significantly reduced | significantly reduced | significantly reduced | increase | increase | no proliferative effect | no proliferative effect | significantly reduced | concentration of maximal GATA3 induction [1, 9]: 10.0 µM; concentration of maximal Tbox 21 induction [1, 9]: 1.0 µM; increase of proliferation of Th2 cells compared to untreated control cells (Th2 cells [6]; at each concentration tested (1, 10 and 100 μM), three days): 50%; production of IL-2 (Th1 cells [4]): significantly reduced; production of IL-12 (Th1 cells [4]): significantly reduced
4 | COc1ccc(C2CNC(=O)C2)cc1OC1CCCC1 (stereo not drawn) [Rolipram] | neither of these inhibitors had more than a modest effect |  |  | significantly increased | significantly increased | significantly increased |  | significantly increased |  |  | increased expression | increased expression | reduce | reduce | significantly reduced | proliferation of Th2 cells (Th2 cells [6]; re-stimulated with anti-CD3 and anti-CD28, three days, vs untreated cells): reduce; proliferation of TGFβ1-derived Treg cells compared with Th1 and Th2 cells (TGFβ1-derived Treg cells [7]; 0.1, 1.0 and 10 μM, three days): may have been more strongly affected
5 | TGFβ1: Transforming growth factor, beta 1; secreted protein added to stimulated PBL |  |  |  |  |  |  |  |  |  |  |  |  |  |  |  | FOXP3 expression relative to an untreated control [1, 10]: approximately 2.5 fold; GATA3 expression relative to an untreated control [1, 10]: approximately 2 fold
